Experimental data published in patent US12377069B2, “Compounds, compositions, methods of using, and methods for preparing compounds” (UNIVERSITY OF LOUISVILLE RESEARCH FOUNDATION, INC., priority 2018, dated 2025).

Tests used:
[1] = test system: mouse bone marrow derived macrophages (BMDMs); assay: LPS-induced IL-6 and TNF-α in BMDM; format: cell-based; settings: for LPS-induced IL-6 production in AhR^−/− macrophages: AhR^−/− BMDM, up to 30 NM; for LPS induced IL-6 and TNF-α: 0.1-50 μM; for IL-6 in Nrf2^−/− (fold reduction; TNBS model and LPS-induced BMDM): Nrf2^−/− vs WT
Description: Measurements of IL-6 and TNF-α in BMDM: BMDM were plated in 96 (10,000 cells/well) and 12 wells (0.1×10^6 cells/well) plate for ELISA and RNA isolation. To evaluate the anti-inflammatory properties, BMDMs were stimulated with E. coli-derived lipopolysaccharides (LPS; 055:B5; Sigma) at 50 ng/mL concentration for six hours alone or in combination with UroA or UAS03 at indicated concentrations (0.01, 0.1, 1, 10, 25, 50 μM) in quadruplicates. For cytokine production via ELISA, the supernatant was collected and centrifuged at 10,000×g for 10 min at 4° C. to pellet down any cell and cytokines were quantified using IL-6 and TNF-α specific ELISA kit (Biolegend) following manufacturer's instruction.
Screening for anti-inflammatory activities: Mouse bone marrow derived macrophages (BMDM) were plated in 96 wells plate for ELISA. To evaluate the anti-inflammatory properties, BMDMs were stimulated with E. coli-derived lipopolysaccharides (LPS; 055:B5; Sigma) at 50 ng/mL concentration for six hours alone or in combination with compounds at indicated concentrations in quadruplicates. For cytokine production via ELISA, the supernatant was collected and centrifuged at 12,000 rpm for 10 min at 4° C. to pellet down any cell and cytokines were quantified using IL-6 and TNF-α specific ELISA kit (Biolegend) following manufacturer's instruction. LPS induced IL-6 or TNF-α considered as 100%.

BMDM = assay: Nrf2-dependent pathways in macrophages; format: cell-based, mouse; settings: 50 μM
Description: The data is separately presented for each time point (No TNBS− Solid black line; Veh+TNBS− Solid red line; UroA+TNBS− Solid blue line; UAS03+TNBS− Solid purple line). The data is separately presented for each time point. (No TNBS− Solid black line; Veh+TNBS− Solid red line; UroA+TNBS− Solid blue line; UAS03+TNBS− Solid purple line). (C-G) UroA/UAS03 activate Nrf2-dependent pathways in BMDM. (C) Wild type BMDM were isolated and cultured for 7 days. BMDM were treated with Veh (0.01% DMSO) or UroA or UAS03 (50 μM) for 6 h and total RNA was isolated. Nrf2 levels were measured using SyBR green Real Time PCR method. (D) Veh or UroA or UAS03 treated BMDM cell lysates were immunoblotted for Nrf2. (E) The nuclear and cytosolic fractions of BMDMs were immnunobloted for Nr2. Lamin B and β-actin were used as normalizing proteins. […] The expression of Nrf2 was determined by immunofluorescence staining using anti-Nrf2 followed by secondary antibody tagged with Alexa-488 dye and DAPI was used to stain nucleus. The fluorescence images were captured using Nikon A1R confocal microscope at 60× magnification and green fluorescence (n=>15 cells) was measured using Nikon elements software. […] NF-κB activation was evaluated by EMSA assays. […] The fold change over basal was calculated using its own control. […]

| SMILES | LPS-induced IL-6 production in AhR^−/− macrophages [1] | anti-inflammatory activities (LPS-induced IL-6 and TNF-α), analogue screening ([1]; LPS 50 ng/mL, six hours, compared UroA) | concentrations showing anti-inflammatory activities ([1]; LPS 50 ng/ml, 6 h) | LPS induced IL-6 and TNF-α ([1]; LPS 50 ng/ml, 6 h) | IL-6 in Nrf2^−/− (fold reduction; TNBS model and LPS-induced BMDM) [1] | Nrf2 expression, nuclear translocation and HO1 in macrophages (BMDM) |
| --- | --- | --- | --- | --- | --- | --- |
| Oc1ccc2c(c1)COc1cc(O)ccc1-2 [UAS03, 6H-benzo[c]chromene-3,8-diol] | did not block | effective anti-inflammatory compounds | nano molar concentrations | decreased | reduced IL-6 in Nrf2^−/− similar to WT | upregulated Nrf2 expression and induced its nuclear translocation |
| O=c1oc2cc(O)ccc2c2ccc(O)cc12 [UroA, 3,8-dihydroxy-6H-dibenzo[b,d]pyran-6-one] | did not block | – | – | decreased | reduced IL-6 in Nrf2^−/− similar to WT | upregulated Nrf2 expression and induced its nuclear translocation |
